Here are results for three molecules from ChEMBL document CHEMBL2157954.

For experiment [1], the species on record is Rattus norvegicus. As to the kind of experiment: […] activity in rat with several spinal cord injury assessed as increase in locomotory function. It is filed as functional, organism-based.
The species named for experiment [2] is Rattus norvegicus. As to the kind of experiment: […] activity in rat with several spinal cord injury assessed as increase in voiding function. It is filed as functional, organism-based.
In the next experiment the test system is Lymphocyte. As to the kind of experiment: Immunosuppressive activity against autoimmune lymphocytes assessed as inhibition of cell expansion. Type of experiment: functional, cell-based.
In experiment [3] the test system is Rattus norvegicus. As to the kind of experiment: […] activity in rat with several spinal cord injury assessed as increase in locomotory function at 20 mg/kg/day for 7 days. It is filed as functional, organism-based.
Experiment [4] deals with Rattus norvegicus. As to the kind of experiment: […] activity in rat with several spinal cord injury assessed as increase in voiding function at 20 mg/kg/day for 7 days. It is filed as functional, organism-based.

The source made the active and inactive calls. The rule behind the calls is not given here.

As for `C/C(O)=C(\C#N)C(=O)Nc1ccc(C(F)(F)F)cc1`, the outcome in the experiment filed under Rattus norvegicus [1] and in the experiment listed under Rattus norvegicus [2] was Active.
On to `Cc1oncc1C(=O)Nc1ccc(C(F)(F)F)cc1`, for which the inhibition result in the experiment on Lymphocyte is “Active”. For the same molecule, the outcome with Rattus norvegicus [3] and in the experiment on Rattus norvegicus [4] was Active.
As to `Cc1cc(NC(=O)/C(C#N)=C(\O)C2CC2)ccc1C(F)(F)F`, the result in the experiment filed under Rattus norvegicus [1] and in the experiment filed under Rattus norvegicus [2] was Active.
